# In patent publication EP2519243B1, “COMPOSITIONS AND METHODS FOR TREATING HEPATITIS B VIRUS INFECTION” (priority 2009, dated 2011):
# Where two headings read alike, the source gives them in different places.
# What was measured:
# [1] = cited from earlier work
# HBV [2] = conditions: cited from earlier work; for cumulative rate of resistance: in 5 years
# HBV [3] = assay: Viral dynamic analyses of serum HBV DNA under lamivudine therapy (model fit and simulation); set-up: species or system human; conditions: estimate (standard error)
# Source text: The HBV DNA data used in the unique assessments disclosed herein of HBV viral dynamics under lamivudine therapy were obtained from the previously published lamivudine dose-response curves (FIG. 1). […] Therefore, for the viral dynamic analyses, only data up to day 15 were used.
# The digitalized data were converted to percent change from baseline as (Vt-V0)/V0 and further presented as Vt/V0, where V0 and Vt are the HBV DNA data at baseline and at time t after treatment initiation, respectively. The viral dynamic model as illustrated below was fitted to the Vt/V0 vs. time data: Vt /V0 = [(ε*u-a)/(u-a)]*exp(-u*t) + [(1-ε)*u/(u-a)]*exp(-a*t) [formula] where u is the clearance rate constant of free virions; a is the clearance rate constant of infected cells; ε is the inhibition efficacy.
# Table 3. Exemplary viral dynamic parameter estimates (standard error) of lamivudine
# These analyses are illustrated in FIG. 2.
# Table 4. Examples of model predicted HBV DNA reduction from baseline on long10 scale (% change)
# HBV [4] = conditions: day 29, 100 mg/day dose; no additional benefits with 300 mg or 600 mg; cited from earlier work
# HBV [5] = assay: Emax modeling of predicted day 29 HBV DNA reduction versus lamivudine dose; set-up: species or system human; conditions: Emax model estimate (standard error); Emax fixed to 4; day 29 predicted data
# Source text: The predicted HBV DNA reduction data on day 29 were used for Emax modeling analyses for the purpose of defining optimal doses of lamivudine.
# An Emax model in the form of E = Emax *ED50^h /(D^h+ED50^h) [formula] where E and Emax are the viral response with dose D and maximum viral response respectively; ED50 is the dose resulting in 50% of viral response; h is the Hill parameter. The maximum reduction of HBV NDA at 4 weeks achievable by a nucleoside/nucleotide antiviral is approximately 4 log10. (Buti et al. J. Hepatol. 39: S139-S142, 2003.) Therefore, in the Emax modeling herein, Emax was fixed to 4.
# Using these estimates, viral responses at untested doses were predicted and results are illustrated in FIG. 3 and presented in Table 5.
SMILES,"cumulative rate of nephrotoxicity ([1]; 10 mg per day, 4-5 years, patients with compensated liver disease) [%]","adefovir-associated nephrotoxicity (patients) ([1]; decompensated liver disease and liver transplantation, treatment periods of 39-99 weeks)",cumulative rate of resistance (HBV [2]; HBeAg negative patients) [%],cumulative rate of resistance (HBV [2]; HBeAg positive patients),5-year resistance rate (HBV [2]; monotherapy),e (inhibition efficacy) (HBV [3]; lamivudine 5 mg/day),e (inhibition efficacy) (HBV [3]; lamivudine 20 mg/day),e (inhibition efficacy) (HBV [3]; lamivudine 100 mg/day),e (inhibition efficacy) (HBV [3]; lamivudine 300 mg/day),e (inhibition efficacy) (HBV [3]; lamivudine 600 mg/day),"maximal observed viral suppression (median, from baseline) (HBV [4]) [%]",ED50 (dose resulting in 50% of viral response) (HBV [5])
"CC(C)(C)C(=O)OCOP(=O)(COCCn1cnc2c(N)ncnc21)OCOC(=O)C(C)(C)C [adefovir dipivoxil, 9-[2-[[bis[(pivaloyloxy)methoxy]-phosphinyl]-methoxy]ethyl]adenine]",3,up to 47%,29,about 20%,20-30%,,,,,,,
"Nc1ccn([C@@H]2CS[C@H](CO)O2)c(=O)n1 (relative stereo) [lamivudine, (2R,cis)-4-amino-1-(2-hydroxymethyl-1,3-oxathiolan-5-yl)-(1H)-pyrimidin-2-one]",,,,,,0.6193 (0.0369),0.8186 (0.0374),0.8173 (0.0254),0.8463 (0.0087),0.8673 (0.0248),≥ 98,101.5 (29.04) mg
